Assay results published in ChEMBL document CHEMBL1201862, “PubChem BioAssay data set” (2004).
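Grown in 96-well plates, cells were treated for 48 hours with each compound at five concentrations. Insufficient inhibition: endpoint recorded as highest concentration tested. GI50 = concentration required for 50% inhibition of growth.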 The source made the active and inactive calls. No stated cut-off is given here; in the data, active = GI50 up to about 1.1 µM and inactive = higher.

Assays:
Test in all cases: NCI tumour cell line growth inhibition, 48 h
NCI-H23 = tested on: NCI-H23
786-0 = tested on: 786-0
COLO 205 = tested on: COLO 205
NCI-H460 = tested on: NCI-H460
OVCAR-3 = tested on: OVCAR-3
OVCAR-8 = tested on: OVCAR-8
OVCAR-5 = tested on: OVCAR-5
M14 = tested on: M14
DU-145 = tested on: DU-145
SK-MEL-2 = tested on: SK-MEL-2
MDA-MB-435 = tested on: MDA-MB-435
MDA-N = tested on: MDA-N
SN12C = tested on: SN12C
HCT-116 = tested on: HCT-116
MOLT-4 = tested on: MOLT-4
HOP-92 = tested on: HOP-92
HT-29 = tested on: HT-29
MDA-MB-231 = tested on: MDA-MB-231
HOP-62 = tested on: HOP-62
K562 = tested on: K562
SF-539 = tested on: SF-539
U-251 = tested on: U-251
UACC-62 = tested on: UACC-62
HCT-15 = tested on: HCT-15
NCI/ADR-RES = tested on: NCI/ADR-RES
KM12 = tested on: KM12
UACC-257 = tested on: UACC-257
TK-10 = tested on: TK-10
HCC 2998 = tested on: HCC 2998
SW-620 = tested on: SW-620
SNB-19 = tested on: SNB-19
EKVX = tested on: EKVX
RPMI-8226 = tested on: RPMI-8226
UO-31 = tested on: UO-31
NCI-H226 = tested on: NCI-H226
A498 = tested on: A498
MCF7 = tested on: MCF7
IGROV-1 = tested on: IGROV-1
RXF 393 = tested on: RXF 393
SK-MEL-5 = tested on: SK-MEL-5
SF-295 = tested on: SF-295
Hs-578T = tested on: Hs-578T
ACHN = tested on: ACHN
OVCAR-4 = tested on: OVCAR-4
T47D = tested on: T47D
SK-OV-3 = tested on: SK-OV-3
SNB-75 = tested on: SNB-75
A549 = tested on: A549
SF-268 = tested on: SF-268
SK-MEL-28 = tested on: SK-MEL-28
LOX IMVI = tested on: LOX IMVI
CAKI-1 = tested on: CAKI-1
HL-60 = tested on: HL-60
Malme-3M = tested on: Malme-3M
PC-3 = tested on: PC-3
SR = tested on: SR
CCRF-CEM = tested on: CCRF-CEM

O=C(Cc1ccccc1)NN1C(=O)/C(=C\c2cccc([N+](=O)[O-])c2)S/C1=N\c1ccccc1 was tested, and the GI50 (NCI-H23) was > 100 µM (inactive), the GI50 (786-0) was > 100 µM (inactive) and the GI50 (COLO 205) was > 100 µM (inactive). For the same compound, the GI50 (NCI-H460) was > 100 µM (inactive), the GI50 (OVCAR-3) was > 100 µM (inactive) and the GI50 (OVCAR-8) was > 100 µM (inactive). The GI50 (OVCAR-5) was > 100 µM (inactive), the GI50 (M14) was > 100 µM (inactive) and the GI50 (DU-145) was > 100 µM (inactive). For the same compound, the GI50 (SK-MEL-2) was > 100 µM (inactive), the GI50 (MDA-MB-435) was > 100 µM (inactive) and the GI50 (MDA-N) was > 100 µM (inactive). For the same compound, the GI50 (SN12C) was > 100 µM (inactive), the GI50 (HCT-116) was > 100 µM (inactive) and the GI50 (MOLT-4) was 42.5 µM (inactive). The GI50 (HOP-92) was 44 µM (inactive), the GI50 (HT-29) was > 100 µM (inactive) and the GI50 (MDA-MB-231) was > 100 µM (inactive). For the same compound, the GI50 (HOP-62) was > 100 µM (inactive), the GI50 (K562) was > 100 µM (inactive) and the GI50 (SF-539) was > 100 µM (inactive). The GI50 (U-251) was > 100 µM (inactive), the GI50 (UACC-62) was > 100 µM (inactive) and the GI50 (HCT-15) was greater than 100 µM. For the same compound, the GI50 (NCI/ADR-RES) was > 100 µM (inactive), the GI50 (KM12) was > 100 µM (inactive) and the GI50 (UACC-257) was > 100 µM (inactive). For the same compound, the GI50 (TK-10) was > 100 µM (inactive), the GI50 (HCC 2998) was > 100 µM (inactive) and the GI50 (SW-620) was > 100 µM (inactive). The GI50 (SNB-19) was > 100 µM (inactive), the GI50 (EKVX) was > 100 µM (inactive) and the GI50 (RPMI-8226) was > 100 µM (inactive). For the same compound, the GI50 (UO-31) was > 100 µM (inactive), the GI50 (NCI-H226) was > 100 µM (inactive) and the GI50 (A498) was > 100 µM (inactive). The GI50 (MCF7) was 34.7 µM (inactive), the GI50 (IGROV-1) was > 100 µM (inactive) and the GI50 (RXF 393) was > 100 µM (inactive). The GI50 (SK-MEL-5) was > 100 µM (inactive), the GI50 (SF-295) was > 100 µM (inactive) and the GI50 (Hs-578T) was > 100 µM (inactive). For the same compound, the GI50 (ACHN) was > 100 µM (inactive), the GI50 (OVCAR-4) was > 100 µM (inactive) and the GI50 (T47D) was > 100 µM (inactive). The GI50 (SK-OV-3) was > 100 µM (inactive), the GI50 (SNB-75) was > 100 µM (inactive) and the GI50 (A549) was > 100 µM (inactive). The GI50 (SF-268) was > 100 µM (inactive) and the GI50 (SK-MEL-28) was > 100 µM (inactive).

CC1(C)N=C(/C(C#N)=[N+](/[O-])C(=O)c2ccccc2)C(C)(C)N1O was tested, and the GI50 (NCI-H23) was > 100 µM (inactive), the GI50 (LOX IMVI) was > 100 µM (inactive) and the GI50 (786-0) was > 100 µM (inactive). For the same compound, the GI50 (COLO 205) was > 100 µM (inactive), the GI50 (NCI-H460) was > 100 µM (inactive) and the GI50 (OVCAR-3) was > 100 µM (inactive). The GI50 (OVCAR-8) was > 100 µM (inactive), the GI50 (OVCAR-5) was > 100 µM (inactive) and the GI50 (M14) was > 100 µM (inactive). For the same compound, the GI50 (DU-145) was > 100 µM (inactive), the GI50 (SK-MEL-2) was > 100 µM (inactive) and the GI50 (MDA-MB-435) was > 100 µM (inactive). The GI50 (MDA-N) was > 100 µM (inactive), the GI50 (SN12C) was > 100 µM (inactive) and the GI50 (HCT-116) was > 100 µM (inactive). The GI50 (MOLT-4) was > 100 µM (inactive), the GI50 (HOP-92) was > 100 µM (inactive) and the GI50 (CAKI-1) was > 100 µM (inactive). The GI50 (HL-60) was > 100 µM (inactive), the GI50 (HT-29) was > 100 µM (inactive) and the GI50 (MDA-MB-231) was > 100 µM (inactive). For the same compound, the GI50 (Malme-3M) was > 100 µM (inactive), the GI50 (HOP-62) was > 100 µM (inactive) and the GI50 (K562) was > 100 µM (inactive). The GI50 (SF-539) was > 100 µM (inactive), the GI50 (U-251) was > 100 µM (inactive) and the GI50 (UACC-62) was > 100 µM (inactive). For the same compound, the GI50 (HCT-15) was greater than 100 µM, the GI50 (NCI/ADR-RES) was > 100 µM (inactive) and the GI50 (KM12) was > 100 µM (inactive). The GI50 (UACC-257) was > 100 µM (inactive), the GI50 (TK-10) was > 100 µM (inactive) and the GI50 (HCC 2998) was > 100 µM (inactive). The GI50 (SW-620) was > 100 µM (inactive), the GI50 (SNB-19) was > 100 µM (inactive) and the GI50 (EKVX) was > 100 µM (inactive). The GI50 (RPMI-8226) was > 100 µM (inactive), the GI50 (UO-31) was > 100 µM (inactive) and the GI50 (NCI-H226) was > 100 µM (inactive). For the same compound, the GI50 (MCF7) was > 100 µM (inactive), the GI50 (IGROV-1) was > 100 µM (inactive) and the GI50 (RXF 393) was > 100 µM (inactive). For the same compound, the GI50 (SK-MEL-5) was > 100 µM (inactive), the GI50 (SF-295) was > 100 µM (inactive) and the GI50 (Hs-578T) was > 100 µM (inactive). The GI50 (ACHN) was > 100 µM (inactive), the GI50 (OVCAR-4) was > 100 µM (inactive) and the GI50 (T47D) was > 100 µM (inactive). For the same compound, the GI50 (SK-OV-3) was > 100 µM (inactive), the GI50 (PC-3) was > 100 µM (inactive) and the GI50 (SNB-75) was > 100 µM (inactive). For the same compound, the GI50 (A549) was > 100 µM (inactive), the GI50 (SF-268) was > 100 µM (inactive) and the GI50 (SR) was > 100 µM (inactive). For the same compound, the GI50 (SK-MEL-28) was > 100 µM (inactive) and the GI50 (CCRF-CEM) was > 100 µM (inactive).
